Patent publication US7745393B2, “Minimalist bZIP proteins and uses thereof” (priority 2005, dated 2010)
“Also recorded” adds a separate entry of the source.

B1: Arnt-C/EBP: Arnt basic region and a portion of Helix 1 directly fused to the C/EBP zipper (protein)
chain: DQMSNDKERFARENHSEIERRRRNKMTAYITELSRIRLEQKVLELTSDNDRLRKRVEQLSRELDTL
modifications: Arnt-C/EBP
notes: Arnt basic region and a portion of Helix 1 directly fused to the C/EBP zipper
B2: Arnt1-C/EBP: Arnt basic region, RIR linker, C/EBP leucine zipper; SEQ ID No. 7 (protein)
chain: KFLRCDDDQMSNDKERFARENHSEIERRRRNKMTAYITERIRLEQKVLELTSDNDRLRKRVEQLSRELDTL
modifications: fusion protein

Experiments:
E-box [1] = conditions: high-salt conditions, in vitro; cited from earlier work
E-box target, 5′-CACGTG = test: yeast one-hybrid his3 reporter assay (colony growth on SD/-His/-Leu with 3-AT); type: cell-based, Saccharomyces cerevisiae; set-up: key to his3: +: positive; −: negative; conditions: for his3 assay binding/colony growth: 30° C.; for binding to E-box / colony growth in yeast one-hybrid assay: 3-AT concentration not stated; for his3: positive/negative colony growth in yeast cells on plates
Description: A reporter strain was constructed such that the E-box target, 5′-CACGTG, resides upstream of the HIS3 reporter gene. The bHLH/bZIP hybrid was fused to the GAL4 transcriptional activation domain so that if a hybrid binds the E-box, the HIS3 protein will be expressed, thus allowing yeast to survive under conditions of histidine auxotrophy. Four tandem copies of the E-box (as shown in Table 9) were cloned into the pHISi-1 integrating reporter vector (Matchmaker One-Hybrid System, Clontech). After insertion of the E-box insert, the pHISi-1 vector was linearized and incorporated into the yeast genome by homologous recombination to generate Saccharomyces cerevisiae YM4271[pHISi-1/E-box]. To assess background due to the reporter, 3-aminotriazole (3-AT) was used as a competitive inhibitor of the HIS3 protein. Because it is possible that the reporter may be activated by endogenous factors, YM4271[pHISi-1/E-box] was subjected to titration with varying amounts of 3-AT to measure the concentration of 3-AT sufficient for suppression of background growth.
Transformation of the yeast cells was performed by electroporation. Following electroporation, cells were plated on minimal selective medium lacking leucine and histidine with the appropriate amount of 3-AT to suppress background.
(§1) A modified yeast one-hybrid system (Y1H) (Wang MM and Reed RR. 1993, Nature, 364, 121) was used to examine the E-box binding activity of the hybrids in vivo. Two S. cerevisiae reporter strains were constructed: four tandem copies of the E-box were cloned upstream of either the his3 or LacZ reporters. In the his3 assay, the His3 protein is expressed upon binding of our hybrids at E-box, allowing yeast to survive under histidine auxotrophy (FIG. 6). Surviving colonies are visualized on plates with media lacking histidine and in the presence of 3-aminotriazole (3-AT), a competitive inhibitor of His3 that reduces background growth. Yeast was plated on 10-60 mM 3-AT as a qualitative test of binding strength to E-box. Hybrids were also tested by two assays based on the LacZ reporter, which encodes β-galactosidase. (Serebriiskii, I. G. and Golemis, E. A. 2000 Anal. Biochem. 285, 1. The qualitative colony-lift filter assay uses X-gal as substrate for calorimetric visualization of protein-DNA binding (FIG. 7). Positives display vivid blue color. The ortho-nitrophenyl-β-galactoside (ONPG) liquid assay is quantitative (FIG. 8). However, this assay is not sensitive enough to quantify weak interactions accurately, (Mökli, N. and Auerbach, D. 2004 BioTechniques 36, 872) so the far more sensitive colony-lift assay is also typically performed.

E-box [2] = test: LacZ colony-lift filter assay (X-gal); type: cell-based, S. cerevisiae; set-up: key to Colony-lift: +: blue; −: white; conditions: for Colony-lift: LacZ-based X-gal colony-lift filter assay, blue/white screen; for colony-lift filter assay binding (color): X-gal substrate
Description: as §1

E-box [3] = test: LacZ ONPG liquid assay (β-galactosidase); type: cell-based, S. cerevisiae; conditions: for β-galactosidase activity: ONPG assay, FIG. 8, averages of nine to twelve measurements
Description: The measurement of binding of the minimalist bZIP proteins to the target DNA sequence is a LacZ-based quantitative assay using ortho-nitrophenyl-beta-galactoside as calorimetric substrate (ONPG). Minimalist bZIP proteins with ONPG values exceeding 10 beta-galactosidase units are considered to be good binders to the target DNA sequence. Minimalist bZIP proteins with ONPG values below 10 beta-galactosidase units are ideal for selection and evolution,
as §1

Molecule	his3 assay binding/colony growth (E-box target, 5′-CACGTG; 10 mM 3-AT)	binding to E-box / colony growth in yeast one-hybrid assay (E-box target, 5′-CACGTG)	his3 (E-box target, 5′-CACGTG)	Colony-lift (E-box [2])	colony-lift filter assay binding (color) (E-box [2])	ONPG (E-box [3]; Table 11)	β-galactosidase activity (E-box [3])	other results
Arnt bHLH: Arnt bHLH alone (56 amino acids), literature, Huffman et al. 2001								Kd (E-box [1]): 56.2 ± 11.7 nM
Max-C/EBP: Max basic region, RIR linker, C/EBP leucine zipper; SEQ ID NO. 52, same sequence as SEQ ID No. 1 (ADKRAHHNALERKRRDHIKDSFHSRIRLEQKVLELTSDNDRLRKRVEQLSRELDTL; fusion protein)	no binding	undetectable	−	−	no binding (clear)	2.2 ± 0.2 β-galactosidase units		his3 assay binding/colony growth (E-box target, 5′-CACGTG; 10 mM 3-AT, listed as Max/C-EBP): Binding undetectable
native Max bHLHZ: native Max bHLHZ (residues 22-113, 92 amino acids), positive control			+	+		26.4 ± 7.7 β-galactosidase units	26.4±7.7	his3 assay binding/colony growth (E-box target, 5′-CACGTG; 20 mM 3-AT): strong binding/colony growth; his3 assay binding/colony growth (E-box target, 5′-CACGTG; 60 mM 3-AT, listed as Max bHLHZ): good colony growth; his3 assay binding/colony growth (E-box target, 5′-CACGTG; 60 mM 3-AT, listed as Native Max bHLHZ): strong binding/colony growth; colony-lift filter assay binding (color) (E-box [2]; listed as Max bHLHZ): intense blue color; also recorded: positive binding (dark blue); colony-lift filter assay binding (color) (E-box [2]; listed as Native Max bHLHZ): positive binding (dark blue); ONPG (E-box [3]; Table 12): 26.41 ± 7.73
B1		no colony growth			extremely pale color; also recorded: no binding (clear)		2.9±0.3	
B2	able to bind to the E-box target DNA sequence							
